# Active and inactive are the calls of the source. No cut-off for these calls is given here.
# How the values were obtained:
# A549 = assay: Cytotoxicity against human A549 cells after 3 days by SRB assay; type: functional, cell-based
# MCF7 = assay: Cytotoxicity against human MCF7 cells after 3 days by SRB assay; type: functional, cell-based
# [1] = Therapeutic index, ratio of IC50 for human H9 cells to EC50 for HIV; type: cell-based; conditions: read-out: Ratio IC50/EC50
# [2] = tested on: Human immunodeficiency virus; assay: Antiviral activity against HIV infected in human H9 cells; type: functional, organism-based; conditions: Human immunodeficiency virus 1, H9
# H9 = assay: Cytotoxicity against human H9 cells; type: cell-based
SMILES,Activity (A549),Activity (MCF7),selectivity ratio [1],EC50 [2] [µg/mL],IC50 (H9) [µg/mL]
COc1cc(/C=C/C(=O)NCCc2ccc(O[C@@H]3O[C@H](CO)[C@@H](O)[C@H](O)[C@H]3O)c(OC)c2)ccc1O[C@@H]1O[C@H](CO)[C@@H](O)[C@H](O)[C@H]1O,inactive,inactive,,,
O=C(O)c1cc2c(c3c1ccc1ccccc13)OCO2,inactive,inactive,,,
CC1=C2OC(C)(C)c3c(O)cc(C)c(c32)C(=O)C1=O [DEHYDROOXOPEREZINONE],inactive,inactive,1.43,17.5,25.1

# From ChEMBL document CHEMBL1146558, “Constituents from the stems of Aristolochia manshuriensis” (J Nat Prod, 2003)
